US9493466B2, “Treatment of cancer with TOR kinase inhibitors” (Signal Pharmaceuticals, LLC, priority 2011, dated 2016)

Assays:
Assay in all cases: Growth inhibition assay for breast cancer
Format in all cases: cell-based
AU565 = AU565 (Luminal, Her2+), 96 hours
Text: (§1) Growth Inhibition Assay for Breast Cancer (BC) (Compound 1). All breast cancer cell lines were maintained and tested in appropriate culture media. The seeding density for each cell line was optimized to ensure assay linearity in 384-well plates.
(§2) Increasing concentrations of Compound 1 were spotted via an acoustic dispenser (EDC ATS-100) into an empty 384-well plate. Compound 1 was spotted in a 10-point serial dilution fashion (3-fold dilution) in duplicate within the plate. The dimethyl sulfoxide (DMSO) concentration was kept constant for a final assay concentration of 0.1% DMSO. Plates were replicated for use against different cell lines and testing periods. After compound plate replication, all plates were sealed (Agilent ThermoLoc) and stored at −20° C. for up to 1 month. When ready for testing, plates were removed from the freezer, thawed, and unsealed just prior to the addition of the test cell.
(§3) Prior to testing, cells were grown and expanded in culture flasks to provide sufficient amounts of starting material. Cells were then diluted to their desired densities and added directly to the Compound 1-spotted 384-well plates. Cells were allowed to grow for 96 hours at 37° C./5% CO2. At the time of setup (t0), initial cell number was assessed via a viability assay (Cell Titer-Glo) and read for luminescence. After 96 hours, cell viability of Compound 1-treated cells was assessed via Cell Titer-Glo and read for luminescence.
(§4) Cell lines were assayed for growth inhibition by Compound 1 for at least two independent tests. All data was normalized and represented as a percentage of the DMSO-treated control cells. […] The potency of Compound 1 in different subtypes of breast cancer cell lines is shown in FIG. 7A, while the correlation of Compound 1 sensitivity to ER, HER, PIK3CA, and TP53 status is shown in FIG. 7B.

BT-20 = BT-20 (Basal, TN), 96 hours
Text: as §1, §2, §3, §4

BT-474 = BT-474 (Luminal, Her2+), 96 hours
Text: as §1, §2, §3, §4

BT-483 = BT-483 (Luminal, ER+), 96 hours
Text: as §1, §2, §3, §4

BT-549 = BT-549 (Basal, TN), 96 hours
Text: as §1, §2, §3, §4

CAL-51 = CAL-51 (Basal, TN), 96 hours
Text: as §1, §2, §3, §4

CAMA-1 = CAMA-1 (Luminal, ER+), 96 hours
Text: as §1, §2, §3, §4

HCC1428 = HCC1428 (Luminal, ER+), 96 hours
Text: as §1, §2, §3, §4

HCC1500 = HCC1500 (Luminal, ER+), 96 hours
Text: as §1, §2, §3, §4

HCC1569 = HCC1569 (Basal, Her2+), 96 hours
Text: as §1, §2, §3, §4

HCC1937 = HCC1937 (Basal, TN), 96 hours
Text: as §1, §2, §3, §4

HCC202 = HCC202 (Luminal, Her2+), 96 hours
Text: as §1, §2, §3, §4

HCC2157 = HCC2157 (Basal, TN), 96 hours
Text: as §1, §2, §3, §4

HCC38 = HCC38 (Basal, TN), 96 hours
Text: as §1, §2, §3, §4

KPL-1 = KPL-1 (Luminal, ER+), 96 hours
Text: as §1, §2, §3, §4

MCF12A = MCF12A (Basal, TN), 96 hours
Text: as §1, §2, §3, §4

MDA-MB-134-VI = MDA-MB-134-VI (Luminal, ER+), 96 hours
Text: as §1, §2, §3, §4

MDA-MB-157 = MDA-MB-157 (Basal, TN), 96 hours
Text: as §1, §2, §3, §4

MDA-MB-175-VII = MDA-MB-175-VII (Luminal, ER+), 96 hours
Text: as §1, §2, §3, §4

MDA-MB-361 = MDA-MB-361 (Luminal, Her2+), 96 hours
Text: as §1, §2, §3, §4

MDA-MB-415 = MDA-MB-415 (Luminal, ER+), 96 hours
Text: as §1, §2, §3, §4

MDA-MB-436 = MDA-MB-436 (Basal, TN), 96 hours
Text: as §1, §2, §3, §4

MDA-MB-468 = MDA-MB-468 (Basal, TN), 96 hours
Text: as §1, §2, §3, §4

NCI/ADR-RES = NCI/ADR-RES (Basal, TN), 96 hours
Text: as §1, §2, §3, §4

SK-BR-3 = SK-BR-3 (Luminal, Her2+), 96 hours
Text: as §1, §2, §3, §4

T47D = T47D (Luminal, ER+), 96 hours
Text: as §1, §2, §3, §4

ZR-75-1 = ZR-75-1 (Luminal, ER+), 96 hours
Text: as §1, §2, §3, §4

SMILES: CO[C@H]1CC[C@H](N2C(=O)CNc3ncc(-c4ccc(C(C)(C)O)nc4)nc32)CC1 [Compound 1, 7-(6-(2-hydroxypropan-2-yl)pyridin-3-yl)-1-((1r,4r)-4-methoxycyclohexyl)-3,4-dihydropyrazino-[2,3-b]pyrazin-2(1H)-one]
- GI50 (AU565): 213 nM
- GI50 (BT-20): 330 nM
- GI50 (BT-474): 226 nM
- GI50 (BT-483): 21.7 nM
- GI50 (BT-549): 149 nM
- GI50 (CAL-51): 119 nM
- GI50 (CAMA-1): 146 nM
- GI50 (HCC1428): 98.4 nM
- GI50 (HCC1500): 24.8 nM
- GI50 (HCC1569): 356 nM
- GI50 (HCC1937): 697 nM
- GI50 (HCC202): 20.1 nM
- GI50 (HCC2157): 399 nM
- GI50 (HCC38): 2950 nM
- GI50 (KPL-1): 97.3 nM
- GI50 (MCF12A): 44.4 nM
- GI50 (MDA-MB-134-VI): 101 nM
- GI50 (MDA-MB-157): 4340 nM
- GI50 (MDA-MB-175-VII): 40.8 nM
- GI50 (MDA-MB-361): 65.7 nM
- GI50 (MDA-MB-415): 169 nM
- GI50 (MDA-MB-436): 2990 nM
- GI50 (MDA-MB-468): 1860 nM
- GI50 (NCI/ADR-RES): 944 nM
- GI50 (SK-BR-3): 121 nM
- GI50 (T47D): 55.3 nM
- GI50 (ZR-75-1): 32.1 nM
